In patent US6605308B2, “Pathogen management system” (Tomoco2 Equipment Company, priority 2001, dated 2003):
Read-outs that look alike come from different tables or passages of the source.

Tests used:
[1] = test system: Listeria monocytogenes; conditions: 8% TSP, 10 minutes, room temperature, colony grown on a surface with biofilm; cited from earlier work
[2] = test system: Salmonella; test: Salmonella in chiller water, plant test at Springdale, Ark.
[3] = test system: microorganisms; conditions: versus OCl-; cited from earlier work
[4] = test system: APC; test: APC on carcass after IOBW, Natchitoches, La.; conditions: standard nozzles, 13 seconds of wash time
[5] = test system: Coliform; test: Coliform on carcass after IOBW, Natchitoches, La.; conditions: standard nozzles, 13 seconds of wash time
[6] = test system: E-Coli; test: E-Coli testing at immersion chiller, plant test at Dallas, Tex.
[7] = test system: pathogens; test: Initial one-control-point testing at the immersion chillers, chiller water samples
From the text: In a preferred embodiment, a hypochlorous acid stream is used in more than one discrete location along a poultry processing line, although preliminary investigations for pathogens began as a one-control point approach in the process at the immersion chillers.
Samples of chiller water determined that it was sterilized with hypochlorous acid. It appeared that the disinfecting capabilities were maximized at the chiller.

[8] = test system: E-Coli; test: E-Coli on carcass after IOBW, Natchitoches, La.; conditions: standard nozzles, 13 seconds of wash time
Experimental: More tests are being conducted at a facility in Natchitoches, La. The project began by adding hypochlorous acid to the IOBW on-line. Tests were performed on the carcass before and after the IOBW. APC, Coliform and E-Coli test were run on the carcass. Average APC of the carcass entering the IOBW was 90,559 cfu/ml, Coliform of 2,103 cfu/ml and E-Coli of 1,429 cfu/ml. After adding hypochlorous acid to the existing IOBW, using standard nozzles, a major reduction in the numbers was found. The average APC was 12,792, Coliform 664 cfu/ml and E. coli 383 cfu/ml. This was only with 13 seconds of wash time.

[9] = test system: E-Coli; test: E-Coli testing at chiller system, Natchitoches, La.
[10] = cited from earlier work
[11] = December, 121 samples so far, chiller plus pick/kill room system
[12] = July, 254 samples, system on chiller
[13] = November, 251 samples, chiller plus pick/kill room system

SMILES: O=P([O-])([O-])[O-].[Na+].[Na+].[Na+] [TSP, Trisodium phosphate]
- reduction of bacterial numbers [1]: 1 log10

SMILES: [Ca+2].[O-]Cl.[O-]Cl [calcium hypochlorite solution, calcium hypochlorite]
- reduction in Salmonella [2]: 40%
- samples returned with a positive result of Salmonella ([2]; of 83 samples, four weeks, injected into chiller recirculation lines without pH control): 16 samples

SMILES: OCl [hypochlorous acid]
- effectiveness for killing microorganisms relative to OCl- [3]: about 80 times
- average APC [4]: 12,792 cfu/ml
- average Coliform [5]: 664 cfu/ml
- samples returned positive (Salmonella) ([2]; of 41 samples over three weeks, 98% hypochlorous acid solution injected into chiller recirculation lines): 2 samples
- E-Coli detection rate ([6]; April): 14%
- samples below 100 cfu/ml ([6]; April): 99%
- samples with E-Coli detected ([6]; April, of 264 samples): 37 samples
- E-Coli detection rate ([6]; March): 28%
- samples below 100 cfu/ml ([6]; March): 83%
- samples with E-Coli detected ([6]; March, of 264 samples): 76 samples
- E-Coli detection rate ([6]; May): 8%
- samples below 100 cfu/ml ([6]; May): 100%
- samples with E-Coli detected ([6]; May, of 276 samples): 23 samples
- state of chiller water samples [7]: sterilized
- average E. coli [8]: 383 cfu/ml
- samples over 10 cfu/ml [9, 11]: 28%
- samples over 100 cfu/ml (number) [9, 11]: two
- samples over 10 cfu/ml [9, 12]: 38%
- samples over 100 cfu/ml [9, 12]: 5%
- samples over 10 cfu/ml [9, 13]: 20%
- samples over 100 cfu/ml (number) [9, 13]: one
- Percent HOCl ([10]; pH 5.0, 0 °C): 99.85%
- Percent HOCl ([10]; pH 5.0, 5 °C): 99.83%
- Percent HOCl ([10]; pH 5.0, 10 °C): 99.80%
- Percent HOCl ([10]; pH 5.0, 15 °C): 99.77%
- Percent HOCl ([10]; pH 5.0, 20 °C): 99.74%
- Percent HOCl ([10]; pH 5.0, 25 °C): 99.71%
- Percent HOCl ([10]; pH 5.0, 30 °C): 99.68%
- Percent HOCl ([10]; pH 5.5, 0 °C): 99.53%
- Percent HOCl ([10]; pH 5.5, 5 °C): 99.75%
- Percent HOCl ([10]; pH 5.5, 10 °C): 99.36%
- Percent HOCl ([10]; pH 5.5, 15 °C): 99.27%
- Percent HOCl ([10]; pH 5.5, 20 °C): 99.18%
- Percent HOCl ([10]; pH 5.5, 25 °C): 99.09%
- Percent HOCl ([10]; pH 5.5, 30 °C): 99.01%
- Percent HOCl ([10]; pH 6.0, 0 °C): 98.53%
- Percent HOCl ([10]; pH 6.0, 5 °C): 98.28%
- Percent HOCl ([10]; pH 6.0, 10 °C): 98.01%
- Percent HOCl ([10]; pH 6.0, 15 °C): 97.73%
- Percent HOCl ([10]; pH 6.0, 20 °C): 97.45%
- Percent HOCl ([10]; pH 6.0, 25 °C): 97.18%
- Percent HOCl ([10]; pH 6.0, 30 °C): 96.92%
- Percent HOCl ([10]; pH 7.0, 0 °C): 87.05%
- Percent HOCl ([10]; pH 7.0, 5 °C): 85.08%
- Percent HOCl ([10]; pH 7.0, 10 °C): 83.11%
- Percent HOCl ([10]; pH 7.0, 15 °C): 81.17%
- Percent HOCl ([10]; pH 7.0, 20 °C): 79.23%
- Percent HOCl ([10]; pH 7.0, 25 °C): 77.53%
- Percent HOCl ([10]; pH 7.0, 30 °C): 75.90%
- Percent HOCl ([10]; pH 8.0, 0 °C): 40.19%
- Percent HOCl ([10]; pH 8.0, 5 °C): 36.32%
- Percent HOCl ([10]; pH 8.0, 10 °C): 32.98%
- Percent HOCl ([10]; pH 8.0, 15 °C): 30.12%
- Percent HOCl ([10]; pH 8.0, 20 °C): 27.62%
- Percent HOCl ([10]; pH 8.0, 25 °C): 25.65%
- Percent HOCl ([10]; pH 8.0, 30 °C): 23.95%
- Percent HOCl ([10]; pH 9.0, 0 °C): 6.30%
- Percent HOCl ([10]; pH 9.0, 5 °C): 5.40%
- Percent HOCl ([10]; pH 9.0, 10 °C): 4.69%
- Percent HOCl ([10]; pH 9.0, 15 °C): 4.13%
- Percent HOCl ([10]; pH 9.0, 20 °C): 3.68%
- Percent HOCl ([10]; pH 9.0, 25 °C): 3.34%
- Percent HOCl ([10]; pH 9.0, 30 °C): 3.05%
- Percent HOCl ([10]; pH 10.0, 0 °C): 0.67%
- Percent HOCl ([10]; pH 10.0, 5 °C): 0.57%
- Percent HOCl ([10]; pH 10.0, 10 °C): 0.49%
- Percent HOCl ([10]; pH 10.0, 15 °C): 0.43%
- Percent HOCl ([10]; pH 10.0, 20 °C): 0.38%
- Percent HOCl ([10]; pH 10.0, 25 °C): 0.34%
- Percent HOCl ([10]; pH 10.0, 30 °C): 0.31%
- Percent HOCl ([10]; pH 11.0, 0 °C): 0.067%
- Percent HOCl ([10]; pH 11.0, 5 °C): 0.057%
- Percent HOCl ([10]; pH 11.0, 10 °C): 0.049%
- Percent HOCl ([10]; pH 11.0, 15 °C): 0.043%
- Percent HOCl ([10]; pH 11.0, 20 °C): 0.038%
- Percent HOCl ([10]; pH 11.0, 25 °C): 0.034%
- Percent HOCl ([10]; pH 11.0, 30 °C): 0.031%
